{"source": "patent US6641840B2", "about": "“Sustained release formulations for growth hormone secretagogues” (Pfizer Inc., priority 2000, dated 2003)", "key": {"[1]": {"test": "Solubility and osmotic pressure of the active compound (statement)", "format": "physicochemical"}, "[2]": {"test": "Clinical study: body composition (total adipose and total lean tissue)", "format": "in vivo, human", "procedure": "(§1) (All dosage forms in this part of the study were immediate release dosage forms.)\n(§2) In addition, an extension study was conducted to evaluate the relationship between peak GH concentrations or IGF-I versus surrogate responses such as lipid concentrations and body composition. A sustained release (SR) formulation was also evaluated, either alone or combined with an immediate release (IR) formulation (24-30 patients per group). [16 mg (10 SR, 6 IR) h.s. (h.s. means at bedtime); 16 mg (10 SR, 6 IR) h.s. every third day; 16 mg SR h.s.; and placebo.] The formulations are set forth below.\n(§3) The primary efficacy endpoint was the percentage change from baseline in IGF-1. Secondary outcomes included insulin-like growth factor binding protein 3 (IGFBP-3), cholesterol subfractions, and percent changes in total adipose and total lean tissue. Changes in each of the secondary efficacy measures over time were examined systematically either graphically or in tabular form and summarized using appropriate descriptive statistics as is well known in the art."}, "[3]": {"tested_on": "rat pituitary cells", "test": "Pituitary cell desensitization - growth hormone release assay", "format": "cell-based", "conditions": "for GH release: treatment 10 nM Compound A 15 min", "procedure": "The experiment was designed so that cultures were exposed to a growth hormone secretagogue for 60 min, then growth hormone release was measured during a subsequent 15 min exposure to the same or different growth hormone secretagogue.\nAnterior pituitary glands from male Wistar rats (150-175 g, Charles River, Laboratories, Wilmington, Mass.) were collected in Hank's Balanced Salt Solution (#14170, Life Technologies, Gaithersburg, Md.). Glands were minced with a scalpel, then incubated with bacterial protease (Type IX, EC3.4.24.4, #P-6141, Sigma Chemicals, Milwaukee, Wis.) at 10 U/ml to release individual cells. Cells were pelleted by centrifugation at 200×g for 15 min, then suspended in culture medium and plated at a density of 6.0-6.5×10^4 cells per 0.5 ml per well in 48-well tissue culture plates (#3848, Costar Corporation, Cambridge, Mass.). Culture medium consisted of D-MEM (Dulbecco's Modified Eagle Medium) with high glucose and sodium bicarbonate (#11965) supplemented with 10% heat-inactivated horse serum (#26050, Life Technologies, Gaithersburg, Md.), 2.5% fetal bovine serum (#16140, Life Technologies, Gaithersburg, Md.), 0.1 mM MEM non-essential amino acids (#11140, Life Technologies, Gaithersburg, Md.), 100 U/ml nystatin (#15340, Life Technologies, Gaithersburg, Md.) and 50 ug/ml gentamicin sulfate (#15750, Life Technologies, Gaithersburg, Md.). Cultures were maintained for 3-4 days in a humidified, 5% CO2/95% air incubator at 37° C. prior to performing assays for growth hormone release.\nFor growth hormone release assays, cultures were pre-equilibrated at 37° C. in pre-warmed release medium for 1 h in the presence of a growth hormone secretagogue or excipient (Pretreatment). Release medium consisted of Phenol Red-free D-MEM without bicarbonate (#23800, Life Technologies, Gaithersburg, Md.) supplemented with 25 mM N-[2-hydroxyethyl]piperazine-N′-[2-ethanesulfonic acid] (HEPES), 4.5 g/L glucose, 0.11 g/L sodium pyruvate, 0.584 g/L […] and 0.5% bovine serum albumin (#A-7888, Sigma Chemicals, Milwaukee, Wis.), adjusted to pH 7.4. After pretreatment, the medium was removed and replaced with fresh pre-warmed release medium containing a growth hormone secretagogue or excipient at 0.5 ml/well for 15 min (Treatment). Medium from the Treatment was collected, centrifuged to remove any cells, then assayed for growth hormone content by a conventional double-antibody radioimmunoassay using monkey anti-growth hormone antisera (NIDDK anti-rGH-S-5) and reference rat growth hormone standard (NIDDK-rGH-RP) from Dr. A. F. Parlow, Harbor-UCLA Medical Center, Torrance, Calif. Immune complexes were precipitated using goat anti-monkey immunoglobulin G (#55418, Cappel, Durham, N.C.).\nGrowth hormone secretagogue solutions were prepared at 1000 times the desired concentration and diluted into pre-warmed release medium immediately before use. Peptides such as His-D-Trp-Ala-Trp-Ala-Trp-D-Phe-Lys-NH2 (GHRP-6, #8061, Peninsula Laboratories, Belmont, Calif.) and rat growth hormone releasing factor (GHRH, #8068, Peninsula Laboratories, Belmont, Calif.) were dissolved at 100 μM in 4 mM acetic acid, 10% ethanol, 0.1% bovine serum albumin; other growth hormone secretagogues were dissolved at 5 mM in dimethyl sulfoxide."}, "[4]": {"tested_on": "IGF-1", "test": "Clinical study in subjects 65-84 years: change from baseline in IGF-1", "format": "in vivo, human", "procedure": "This clinical study was performed in male and female subjects between the ages of 65 and 84 years inclusive, and whose baseline IGF-1 levels were <150 ng/ml.\nThe study was a double blind, parallel group, placebo-controlled study.\nas §1, §2\nStudy active compound was supplied in blisterpaks, with five tablets to be taken at time of each dosing. Subjects were instructed to take the tablets with one glass of water at bedtime.\nReturn visits were scheduled at 1, 2, and 4 weeks after baseline. […] The baseline and all subsequent follow-up visits were performed at the same time of day (between approximately 8-11 am).\nA follow-up evaluation was made at 1, 2, and 4 weeks. Vital signs were obtained and the skin of the face, trunk and upper extremities was inspected.\nas §3"}, "[5]": {"conditions": "first leg, immediate release dosing"}}}
{"smiles": "CN1N=C2CCN(C(=O)[C@@H](COCc3ccccc3)NC(=O)C(C)(C)N)C[C@@]2(Cc2ccccc2)C1=O.O=C(O)C(O)C(O)C(=O)O", "note": "[Compound A]", "values": [{"measurement": "osmotic pressure", "setting": "[1]", "result": "about 4 atmospheres"}, {"measurement": "solubility", "setting": "[1]; water", "result": "> 150", "unit": "mg/mL"}, {"measurement": "increases in lean tissue", "setting": "[2]; extension study, two groups receiving IR formulation", "result": "0.5-0.6%"}, {"measurement": "adipose tissue (body composition)", "setting": "[2]; [5]", "result": "decreased"}, {"measurement": "apparent whole body lean mass", "setting": "[2]; [5]", "result": "increased"}, {"measurement": "growth hormone release response", "setting": "[3]; after pretreatment with GHRH", "result": "stimulation of growth hormone release"}, {"measurement": "growth hormone release response", "setting": "[3]; after pretreatment with GHRP-6", "result": "not"}, {"measurement": "GH release", "setting": "[3]; pretreatment 100 nM GHRH 60 min", "result": "36.99 ± 2.43", "unit": "ng/mL/15 min"}, {"measurement": "GH release", "setting": "[3]; pretreatment 100 nM GHRP-6 60 min", "result": "7.64 ± 1.92", "unit": "ng/mL/15 min"}, {"measurement": "GH release", "setting": "[3]; pretreatment none", "result": "25.17 ± 4.32", "unit": "ng/mL/15 min"}, {"measurement": "average rise of IGF-I", "setting": "[4]; extension study, 16 mg (10 SR, 6 IR) h.s. every third day", "result": "approximately 10%"}, {"measurement": "IGF-I", "setting": "[4]; extension study, each of the 2 groups dosed daily (16 mg (10 SR, 6 IR) h.s.; 16 mg SR h.s.)", "result": "increases"}, {"measurement": "increase in IGF-I", "setting": "[4]; first leg, both groups administered 9 mg daily (3 mg tid; 3 mg am and 6 mg pm), immediate release, subjects 65-84 years", "result": "approximately 35%"}]}
